Experimental data as given in patent publication US8513239B2, “Chiral cis-imidazolines” (Hoffmann-La Roche Inc., priority 2007, dated 2013).

Molecular target: interaction between p53 and MDM2 proteins (Homo sapiens, UniProt Q00987)
Assay: HTRF assay of inhibition of p53-MDM2 interaction (GST-MDM2 binding to biotinylated p53 peptide)
Details: recombinant GST-tagged MDM2, biotinylated p53 peptide, 0.2% BSA
Experimental: The ability of the compounds to inhibit the interaction between p53 and MDM2 proteins was measured by an HTRF (homogeneous time-resolved fluorescence) assay in which recombinant GST-tagged MDM2 binds to a peptide that resembles the MDM2-interacting region of p53 (Lane et al.). Binding of GST-MDM2 protein and p53-peptide (biotinylated on its N-terminal end) is registered by the FRET (fluorescence resonance energy transfer) between Europium (Eu)-labeled anti-GST antibody and streptavidin-conjugated Allophycocyanin (APC).
Test is performed in black flat-bottom 384-well plates (Costar) in a total volume of […] containing:90 nM biotinylate peptide, 160 ng/ml GST-MDM2, 20 nM streptavidin-APC (PerkinElmerWallac), 2 nM Eu-labeled anti-GST-antibody (PerkinElmerWallac), 0.2% bovine serum albumin (BSA), 1 mM dithiothreitol (DTT) and 20 mM […] (TBS) buffer as follows: Add 10 uL of GST-MDM2 (640 ng/ml working solution) in reaction buffer to each well. Add 10 uL diluted compounds (1:5 dilution in reaction buffer) to each well, mix by shaking. Add 20 uL biotinylated p53 peptide (180 nM working solution) in reaction buffer to each well and mix on shaker. Incubate at 37° C. for 1 h. Add 20 uL streptavidin-APC and Eu-anti-GST antibody mixture (6 nM Eu-anti-GST and 60 nM streptavidin-APC working solution) in TBS buffer with 0.2% BSA, shake at room temperature for 30 minutes and read using a TRF-capable plate reader at 665 and 615 nm (Victor 5, Perkin ElmerWallac). If not specified, the reagents were purchased from Sigma Chemical Co.

interaction between p53 and MDM2 proteins, sequence (Q00987 whole entry): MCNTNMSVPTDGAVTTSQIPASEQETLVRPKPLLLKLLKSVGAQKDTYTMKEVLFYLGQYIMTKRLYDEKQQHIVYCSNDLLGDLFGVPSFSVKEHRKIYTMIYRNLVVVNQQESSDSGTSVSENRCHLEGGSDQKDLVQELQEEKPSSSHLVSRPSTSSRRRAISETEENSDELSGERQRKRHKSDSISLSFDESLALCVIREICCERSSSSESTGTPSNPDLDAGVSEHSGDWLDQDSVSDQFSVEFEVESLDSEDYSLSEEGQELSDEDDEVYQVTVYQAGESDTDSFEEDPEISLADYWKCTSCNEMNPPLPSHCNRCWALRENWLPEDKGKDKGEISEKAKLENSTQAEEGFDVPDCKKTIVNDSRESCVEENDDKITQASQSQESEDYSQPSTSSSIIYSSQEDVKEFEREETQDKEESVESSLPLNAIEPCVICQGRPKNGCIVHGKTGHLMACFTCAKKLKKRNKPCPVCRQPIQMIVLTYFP

SMILES | IC50
CCOc1nc(C(C)(C)C)ncc1C1=N[C@@](C)(c2ccc(Cl)cc2)[C@@](C)(c2ccc(Cl)cc2)N1C(=O)N1CCN(CC(=O)N2CCOCC2)CC1 (racemic) [Example 40, Rac-2-{4-[(4S*,5R*)-2-(2-tert-Butyl-4-ethoxy-pyrimidin-5-yl)-4,5-bis-(4-chloro-phenyl)-4,5-dimethyl-4,5-dihydro-imidazole-1-carbonyl]-piperazin-1-yl}-1-morpholin-4-yl-ethanone] | 77 nM
CCOc1nc(C(C)(C)C)ccc1C1=N[C@@](C)(c2ccc(Cl)cc2)[C@@](C)(c2ccc(Cl)cc2)N1C(=O)N1CCN(CCCS(C)(=O)=O)CC1 (racemic) [Example 9, Rac-[(4S*,5R*)-2-(6-tert-Butyl-2-ethoxy-pyridin-3-yl)-4,5-bis-(4-chloro-phenyl)-4,5-dimethyl-4,5-dihydro-imidazol-1-yl]-[4-(3-methanesulfonyl-propyl)-piperazin-1-yl]-methanone] | 178 nM
CCOc1nc(C(C)(C)C)ncc1C1=N[C@@](C)(c2ccc(Cl)cc2)[C@@](C)(c2ccc(Cl)cc2)N1C(=O)N1CCC(N2CCCC2)CC1 (racemic) [Example 29, [2-(2-tert-Butyl-4-ethoxy-pyrimidin-5-yl)-4,5-bis-(4-chloro-phenyl)-4,5-dimethyl-4,5-dihydro-imidazol-1-yl]-(4-pyrrolidin-1-yl-piperidin-1-yl)-methanone] | 252 nM
CCOc1nc(C(C)(C)C)ncc1C1=N[C@@](C)(c2ccc(Cl)cc2)[C@@](C)(c2ccc(Cl)cc2)N1C(=O)N1CCN(CCOCCO)CC1 [Example 22, [(4S,5R)-2-(2-tert-Butyl-4-ethoxy-pyrimidin-5-yl)-4,5-bis-(4-chloro-phenyl)-4,5-dimethyl-4,5-dihydro-imidazol-1-yl]-{4-[2-(2-hydroxy-ethoxy)-ethyl]-piperazin-1-yl}-methanone] | 31 nM
CCOc1nc(C(C)(C)C)ncc1C1=N[C@@](C)(c2ccc(Cl)cc2)[C@@](C)(c2ccc(Cl)cc2)N1C(=O)N1CCN(C2CCS(=O)(=O)CC2)CC1 [Example 4, [(4S,5R)-2-(2-tert-Butyl-4-ethoxy-pyrimidin-5-yl)-4,5-bis-(4-chloro-phenyl)-4,5-dimethyl-4,5-dihydro-imidazol-1-yl]-[4-(1,1-dioxo-hexahydro-thiopyran-4-yl)-piperazin-1-yl]-methanone] | 46 nM
